In the supplement of paper PMC11061612:

How the values were obtained:
[1] = system: DEL (T-Cell Non-Hodgkin's Lymphoma); assay: Bliss excess, mean over the matrix (fraction); higher = more synergy
Method in brief: (§1)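 Cell lines in DMEM/F12 or RPMI with 10% FBS were plated in 1536-well plates, held 24 hours at 37°C, 5% CO2, then given two-drug dose matrices for 72 hours (DMSO typically 0.2%). Viability was read by CellTiter-Glo 2.0 luminescence and scaled as inhibition from 0 (vehicle wells) to 1 (blank wells). Combination Emax is the second-highest inhibition in the matrix; Bliss excess is observed combination effect minus expected EA + EB − EA·EB, EA and EB being single-agent effects.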

[2] = system: DoTc2-4510 (Cervical Carcinoma); assay: as above
Method in brief: as §1

[3] = system: Hs-578-T (Breast Carcinoma); assay: as above
Method in brief: as §1

KELLY (Neuroblastoma) = assay: as above
Method in brief: as §1

[4] = system: KURAMOCHI (Ovarian Carcinoma); assay: as above
Method in brief: as §1

[5] = system: LB831-BLC (Bladder Carcinoma); assay: as above
Method in brief: as §1

[6] = system: LU-135 (Small Cell Lung Carcinoma); assay: as above
Method in brief: as §1

[7] = system: ME-1 (Acute Myeloid Leukemia); assay: as above
Method in brief: as §1

NB10 (Neuroblastoma) = assay: as above
Method in brief: as §1

NOS-1 (Osteosarcoma) = assay: as above
Method in brief: as §1

[8] = system: OVCA420 (Ovarian Carcinoma); assay: as above
Method in brief: as §1

[9] = system: RC-K8 (B-Cell Non-Hodgkin's Lymphoma); assay: as above
Method in brief: as §1

[10] = system: RO82-W-1 (Thyroid Gland Carcinoma); assay: as above
Method in brief: as §1

T98G (Glioblastoma) = assay: as above
Method in brief: as §1

[11] = system: CaR-1 (Colorectal Carcinoma); assay: combination Emax (second highest fraction inhibited in the dose matrix, 72 h); higher = more inhibition; extreme values may be limits of the assay
Method in brief: as §1

HOS (Osteosarcoma) = assay: as above
Method in brief: as §1

[12] = system: HT-1376 (Bladder Carcinoma); assay: as above
Method in brief: as §1

[13] = system: KYSE-520 (Esophageal Squamous Cell Carcinoma); assay: as above
Method in brief: as §1

[14] = system: NCI-H82 (Small Cell Lung Carcinoma); assay: as above
Method in brief: as §1

[15] = system: SK-ES-1 (Ewing's Sarcoma); assay: as above
Method in brief: as §1
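Throughout, for Bliss excess, mean over the matrix: after 72 h of two-drug dosing.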

Structure (SMILES)	Bliss excess [1]	Bliss excess [2]	Bliss excess [3]	Bliss excess (KELLY (Neuroblastoma))	Bliss excess [4]	Bliss excess [5]	Bliss excess [6]	Bliss excess [7]	Bliss excess (NB10 (Neuroblastoma))	Bliss excess (NOS-1 (Osteosarcoma))	Bliss excess [8]	Bliss excess [9]	Bliss excess [10]	Bliss excess (T98G (Glioblastoma))	combination Emax [11]	combination Emax (HOS (Osteosarcoma))	combination Emax [12]	combination Emax [13]	combination Emax [14]	combination Emax [15]
Cc1nc(Nc2ncc(C(=O)Nc3c(C)cccc3Cl)s2)cc(N2CCN(CCO)CC2)n1 [Dasatinib] + CC(=O)Nc1cccc(-n2c(=O)n(C3CC3)c(=O)c3c(Nc4ccc(I)cc4F)n(C)c(=O)c(C)c32)c1 [Trametinib] (first compound max 2 µM, 7x7, partner max 1 µM)	0.0076	-0.0338	-0.0526	0.0824	0.0706	-0.0529	-0.0258	0.0126	-0.0024	0.0688	0.025	-0.0338	-0.0202	0.0187	0.57	0.397	0.241	0.784	0.203	0.24
COc1cc2ncnc(Nc3ccc(F)c(Cl)c3)c2cc1OCCCN1CCOCC1 [Gefitinib] + CC(C)n1c(=O)n(C)c2cnc3cc(F)c(-c4ccc(OCCCN5CCCCC5)nc4)cc3c21 [AZD1390] (first compound max 10 µM, 7x7, partner max 0.3 µM)	-0.0317	-0.0601	-0.0685	-0.0388	-0.0401	-0.0482	-0.0801	-0.0238	-0.0629	-0.063	-0.0193	-0.0473	-0.0586	-0.0557	0.227	0.0904	0.177	0.556	0.386	0.341
CS(=O)(=O)CCNCc1ccc(-c2ccc3ncnc(Nc4ccc(OCc5cccc(F)c5)c(Cl)c4)c3c2)o1 [Lapatinib] + C[C@@H](Oc1cc(-c2cnn(C3CCNCC3)c2)cnc1N)c1c(Cl)ccc(F)c1Cl [Crizotinib] (first compound max 10 µM, 7x7, partner max 10 µM)	0.0074	-0.0321	-0.0984	-0.03	-0.0794	-0.0321	0.0255	-0.0344	-0.0771	-0.0114	0.0287	-0.0433	-0.0392	-0.0861	0.858	0.408	0.255	0.945	0.936	0.938
CC(=O)c1c(C)c2cnc(Nc3ccc(N4CCNCC4)cn3)nc2n(C2CCCC2)c1=O [Palbociclib] + CC1(C)CCC(CN2CCN(c3ccc(C(=O)NS(=O)(=O)c4ccc(NCC5CCOCC5)c([N+](=O)[O-])c4)c(Oc4cnc5[nH]ccc5c4)c3)CC2)=C(c2ccc(Cl)cc2)C1 [Venetoclax] (first compound max 10 µM, 7x7, partner max 1 µM)	0.027	-0.058	-0.0447	0.0358	-0.0418	-0.0523	0.0482	-0.0012	0.0062	0.0157	-0.0468	-0.0904	-0.0825	-0.0075	0.0978	0.258	0.0784	0.114	0.634	0.749
CC(=O)c1c(C)c2cnc(Nc3ccc(N4CCNCC4)cn3)nc2n(C2CCCC2)c1=O [Palbociclib] + Cc1c2c(nn1C)CSCc1cc(n(C)n1)CSc1cc(c3ccccc3c1)OCCCc1c(C(=O)O)n(C)c3c-2c(Cl)ccc13 [AZD5991] (first compound max 10 µM, 7x7, partner max 1 µM)	0.0007	-0.0143	0.0238	0.0123	0.0188	-0.0092	0.0165	-0.0141	0.0435	-0.0006	-0.0313	-0.0555	-0.0283	0.0003	0.229	0.404	0.216	0.462	0.98	0.851
CC(=O)c1c(C)c2cnc(Nc3ccc(N4CCNCC4)cn3)nc2n(C2CCCC2)c1=O [Palbociclib] + Cn1cnc2c(F)c(Nc3ccc(Br)cc3Cl)c(C(=O)NOCCO)cc21 [Selumetinib] (first compound max 10 µM, 7x7, partner max 10 µM)	0.0224	-0.0384	0.0135	0.09	0.0078	-0.0339	0.0056	-0.0321	0.0998	-0.0152	-0.0157	-0.0203	-0.0414	-0.0103	0.307	0.362	0.0425	0.457	0.627	0.622
COc1cccc(OCCCN)c1-c1cc(Nc2cnc(C#N)cn2)n[nH]1 [Prexasertib] + CCc1c2c(nc3ccc(O)cc13)-c1cc3c(c(=O)n1C2)COC(=O)[C@]3(O)CC [SN-38] (first compound max 1 µM, 7x7, partner max 0.3 µM)	-0.0068	0.0167	0.0856	-0.0098	0.0311	0.0581	-0.0623	0.0086	-0.0986	0.0864	0.0326	-0.0506	0.0431	0.0121	0.799	0.994	0.529	0.856	1	1
C[C@@H](c1ccc2nccn2c1)n1nnc2ncc(-c3cnn(C)c3)nc21 [Savolitinib] + CC1(C)CCC(CN2CCN(c3ccc(C(=O)NS(=O)(=O)c4ccc(NCC5CCOCC5)c([N+](=O)[O-])c4)c(Oc4cnc5[nH]ccc5c4)c3)CC2)=C(c2ccc(Cl)cc2)C1 [Venetoclax] (first compound max 1 µM, 7x7, partner max 1 µM)	-0.0385	-0.0601	-0.0363	-0.0038	-0.0274	-0.0978	-0.0561	-0.0192	-0.0389	-0.05	-0.0505	-0.0489	-0.0371	-0.0064	0.171	0.205	0.103	0.149	0.225	0.197
C[C@@H](c1ccc2nccn2c1)n1nnc2ncc(-c3cnn(C)c3)nc21 [Savolitinib] + Cc1c2c(nn1C)CSCc1cc(n(C)n1)CSc1cc(c3ccccc3c1)OCCCc1c(C(=O)O)n(C)c3c-2c(Cl)ccc13 [AZD5991] (first compound max 1 µM, 7x7, partner max 1 µM)	-0.0441	-0.0204	-0.0137	-0.0138	-0.0332	-0.0148	-0.0056	-0.051	-0.0278	-0.059	-0.0134	-0.0257	-0.0386	-0.021	0.154	0.278	0.179	0.189	0.875	0.781
Cn1cnc2c(F)c(Nc3ccc(Br)cc3Cl)c(C(=O)NOCCO)cc21 [Selumetinib] + C=CCn1c(=O)c2cnc(Nc3ccc(N4CCN(C)CC4)cc3)nc2n1-c1cccc(C(C)(C)O)n1 [AZD1775] (first compound max 10 µM, partner max 1 µM)	-0.043	-0.0164	-0.0423	-0.0658	0.0427	-0.08	-0.0337	-0.0255	-0.0125	0.0355	-0.0093	-0.0714	-0.0769	-0.0395	0.288	0.222	0.362	0.595	0.855	0.944
Cn1cnc2c(F)c(Nc3ccc(Br)cc3Cl)c(C(=O)NOCCO)cc21 [Selumetinib] + CC(C)n1c(=O)n(C)c2cnc3cc(F)c(-c4ccc(OCCCN5CCCCC5)nc4)cc3c21 [AZD1390] (first compound max 10 µM, 7x7, partner max 0.3 µM)	0.0087	-0.0401	-0.0426	-0.0177	-0.055	-0.0237	-0.0318	0.0338	-0.0323	0.0117	0.0018	-0.0253	-0.034	-0.0125	0.188	0.11	0.157	0.382	0.177	0.19
Cn1cnc2c(F)c(Nc3ccc(Br)cc3Cl)c(C(=O)NOCCO)cc21 [Selumetinib] + CCN(CCO)CCCOc1ccc2c(Nc3cc(CC(=O)Nc4cccc(F)c4)[nH]n3)ncnc2c1 [AZD2811] (first compound max 10 µM, 7x7, partner max 1 µM)	0.263	-0.0098	0.0203	-0.0709	-0.0203	-0.0385	-0.0118	-0.0296	-0.0402	-0.0092	0.0471	0.0763	0.0016	-0.0104	0.406	0.198	0.198	0.428	0.442	0.96
Cn1cnc2c(F)c(Nc3ccc(Br)cc3Cl)c(C(=O)NOCCO)cc21 [Selumetinib] + C[C@@H]1COCCN1C2=NC(=NC(=C2)C3(CC3)[S@](=N)(=O)C)C4=C5C=CNC5=NC=C4 [AZD6738] (first compound max 10 µM, 7x7, partner max 10 µM)	0.0172	-0.0282	0.009	-0.015	0.0517	-0.0569	0.0383	-0.0752	-0.0247	0.043	0.078	0.0091	-0.0242	-0.0174	0.395	0.529	0.467	0.534	0.756	0.82
CC(=O)Nc1cccc(-n2c(=O)n(C3CC3)c(=O)c3c(Nc4ccc(I)cc4F)n(C)c(=O)c(C)c32)c1 [Trametinib] + Cc1nc(-c2cn3c(n2)-c2ccc(-c4cnn(C(C)(C)C(N)=O)c4)cc2OCC3)n(C(C)C)n1 [Taselisib] (first compound max 1 µM, 7x7, partner max 10 µM)	0.166	0.143	0.0773	0.132	0.115	0.0977	0.113	0.118	0.118	0.191	0.0806	0.0907	0.0426	0.0822	0.776	0.43	0.339	0.846	0.243	0.696
